From ChEMBL document CHEMBL1131964, “Preparation and receptor binding affinities of cyclic C-terminal neurotensin (8-13) and (9-13) analogues” (Bioorg Med Chem Lett, 1999)

Target: Neurotensin receptor (Homo sapiens, UniProt O95665+P30989)
Assay: Binding ability to compete with [125I]Tyr3-NT (0.15 nM) for human NT receptors cloned in CHO cells.
Assay type: cell-based

Ki | Structure (SMILES)
> 2000 nM | CC[C@@H](C)[C@@H](NC(=O)[C@@H]1Cc2ccc(cc2)OCCCCCC(=O)N2CCC[C@H]2C(=O)N1)C(=O)N[C@@H](CC(C)C)C(=O)O
450 nM | CC[C@@H](C)[C@@H](NC(=O)[C@@H]1Cc2ccc(cc2)OCCCCCC(=O)N[C@H](CCCN=C(N)N)C(=O)N2CCC[C@H]2C(=O)N1)C(=O)N[C@@H](CC(C)C)C(=O)O
28 nM | CC[C@H](C)[C@H](NC(=O)[C@H](Cc1ccc(O)cc1)NC(=O)[C@@H]1CCCN1C(=O)[C@@H](N)CCCN=C(N)N)C(=O)N[C@@H](CC(C)C)C(=O)O
